Laboratory results: US20190375708A1 (VenatoRx Pharmaceuticals, Inc., priority 2018, published 2019)

Experiments:
[1] = system: HBV replication in HepAD38 cells; assay: Anti-HBV replication assay in HepAD38 cells (QPCR of extracellular HBV DNA); assay type: cell-based, HBV (genotype D, serotype ayw); details: Hepatitis B virus, 168 h, 7 days incubation, extracellular HBV DNA by QPCR, read-out: Anti-HBV EC50
In short: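 Steps: seed HepAD38 overnight without tetracycline; refresh medium and add 1 log10 serial dilutions ([…]); incubate 7 days at 37 °C; quantify supernatant HBV DNA by QPCR; derive EC50 from a 4-parameter dose-response fit.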

[2] = In vitro cytotoxicity assay (MTT cell viability) in HepG2 cells; assay type: cell-based, human; details: human
In short: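 Viability measured by MTT conversion, absorbance at 492 nm, as percent of vehicle-treated wells. Compounds spanned 30 μM to 1.0 nM in half-log steps over a 7-day exposure of parental HepG2 cells; CC50 derived by 4-parameter curve fit.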

Structure (SMILES) | EC50 [1] | CC50 at 7 days [2]
Cc1c(C(=O)Nc2ccc(F)nc2)c(C)n(C)c1C(=O)C(=O)N[C@]1(C)CC[C@H](O)CC1 [Example 240, N-(6-fluoropyridin-3-yl)-5-(2-(((1s,4s)-4-hydroxy-1-methylcyclohexyl)amino)-2-oxoacetyl)-1,2,4-trimethyl-1H-pyrrole-3-carboxmaide] | 0.05 to 0.499 µM | > 30 µM
COCC(C)(C)NC(=O)C(=O)c1c(C)c(C(=O)Nc2ccc(F)c(C)c2)c(C)n1CCF [Example 241, N-(4-fluoro-3-methylphenyl)-1-(2-fluoroethyl)-5-(2-((1-methoxy-2-methylpropan-2-yl)amino)-2-oxoacetyl)-2,4-dimethyl-1H-pyrrole-3-carboxamide] | < 0.05 µM | > 30 µM
CNC(=O)C(=O)c1c(C)c(C(=O)Nc2ccc(F)c(C)c2)c(C)n1C [Example 242, N-(4-fluoro-3-methylphenyl)-1,2,4-trimethyl-5-(2-(methylamino)-2-oxoacetyl)-1H-pyrrole-3-carboxamide] | 0.05 to 0.499 µM | > 30 µM
Cc1cc(NC(=O)c2c(C)c(C(=O)C(=O)NCc3nc(C(F)(F)F)no3)n(C)c2C)ccc1F [Example 243, N-(4-fluoro-3-methylphenyl)-1,2,4-trimethyl-5-(2-oxo-2-(((3-(trifluoromethyl)-1,2,4-oxadiazol-5-yl)methyl)amino)acetyl)-1H-pyrrole-3-carboxamide] | < 0.05 µM | 5 to 30 µM
Cc1cc(NC(=O)c2c(C)c(C(=O)C(=O)NCc3nnc(C(F)(F)F)[nH]3)n(C)c2C)ccc1F [Example 244, N-(4-fluoro-3-methylphenyl)-1,2,4-trimethyl-5-(2-oxo-2-(((t-(trifluoromethyl)-4H-1,2,4-triazol-3-yl)methyl)amino)acetyl)-1H-pyrrole-3-carboxamide] | 0.05 to 0.499 µM | 5 to 30 µM
Cc1cc(NC(=O)c2c(C)c(C(=O)C(=O)N[C@H]3CC[C@@H](O)C3)n(C)c2C)ccc1F [Example 245, N-(4-fluoro-3-methylphenyl)-5-(2-(((1S,3R)-3-hydroxycyclopentyl)amino)-2-oxoacetyl)-1,2,4-trimethyl-1H-pyrrole-3-carboxamide] | < 0.05 µM | > 30 µM
Cc1cc(NC(=O)c2c(C)c(C(=O)C(=O)N[C@H]3CC[C@H](O)CC3)n(C)c2C)ccc1F [Example 246, N-(4-fluoro-3-methylphenyl)-5-(2-(((1r,4r)-4-hydroxycyclohexyl)amino)-2-oxoacetyl)-1,2,4-triemthyl-1H-pyrrole-3-carboxamide] | < 0.05 µM | 5 to 30 µM
Cc1cc(NC(=O)c2c(C)c(C(=O)C(=O)NC3CCOCC3)n(C)c2C)ccc1F [Example 247, N-(4-fluoro-3-methylphenyl)-1,2,4-trimethyl-5-(2-oxo-2-((tetrahydro-2H-pyran-4-yl)amino)acetyl)-1H-pyrrole-3-carboxamide] | < 0.05 µM | 5 to 30 µM
COc1cc(NC(=O)C(=O)c2c(C)c(C(=O)Nc3ccc(F)c(C)c3)c(C)n2C)ccc1B(O)O [Example 248, (4-(2-(4-((4-fluoro-3-methylphenyl)carbamoyl)-1,3,5-trimethyl-1H-pyrrol-2-yl)-2-oxoacetamido)-2-methoxyphenyl)boronic acid] | 0.05 to 0.499 µM | 5 to 30 µM
Cc1cc(NC(=O)c2c(C)c(C(=O)C(=O)NC3CCS(=O)(=O)CC3)n(C)c2C)ccc1F [Example 249, 5-(2-((1,1-dioxidotetrahydro-2H-thiopyran-4-yl)amino)-2-oxoacetyl)-N-(4-fluoro-3-methylphenyl)-1,2,4-trimethyl-1H-pyrrole-3-carboxamide] | < 0.05 µM | 5 to 30 µM
Cc1cc(NC(=O)c2c(C)c(C(=O)C(=O)NC3CCC(F)(F)CC3)n(C)c2C)ccc1F [Example 250, 5-(2-((4,4-difluorocyclohexyl)amino)-2-oxoacetyl)-N-(4-fluoro-3-methylphenyl)-1,2,4-trimethyl-1H-pyrrole-3-carboxamide] | < 0.05 µM | 5 to 30 µM
Cc1c(C(=O)Nc2ccc(F)c(Cl)c2)c(C)n(C)c1C(=O)C(=O)N[C@H]1CC[C@@H](O)CC1 [Example 251, N-(3-chloro-4-fluorophenyl)-5-(2-(((1s,4s)-4-hydroxycyclohexyl)amino)-2-oxoacetyl)-1,2,4-trimethyl-1H-pyrrole-3-carboxamide] | < 0.05 µM | > 30 µM
Cc1c(C(=O)Nc2ccnc(Cl)c2)c(C)n(C)c1C(=O)C(=O)N[C@H]1CC[C@@H](O)CC1 [Example 252, N-(2-chloropyridin-4-yl)-5-(2-(((1s,4s)-4-hydroxycyclohexyl)amino)-2-oxoacetyl)-1,2,4-trimethyl-1H-pyrrole-3-carboxamide] | 0.05 to 0.499 µM | > 30 µM
Cc1c(C(=O)Nc2ccnc(Cl)c2)c(C)n(C)c1C(=O)C(=O)NC1(C(F)(F)F)CCOCC1 [Example 253, N-(2-chloropyridin-4-yl)-1,2,4-trimethyl-5-(2-oxo-2-((4-(trifluoromethyl)tetrahydro-2H-pyran-4-yl)amino)acetyl)-1H-pyrrole-3-carboxamide] | < 0.05 µM | > 30 µM
Cc1cc(NC(=O)c2c(C)c(C(=O)C(=O)Nc3cccc(B(O)O)c3)n(C)c2C)ccc1F [Example 254, (3-(2-(4-((4-fluoro-3-methylphenyl)carbamoyl)-1,3,5-trimethyl-1H-pyrrol-2-yl)-2-oxoacetamido)phenyl)boronic acid] | < 0.05 µM | 5 to 30 µM
Cc1cc(NC(=O)c2c(C)c(C(=O)C(=O)Nc3ccc(B(O)O)cc3)n(C)c2C)ccc1F [Example 255, (4-(2-(4-((4-fluoro-3-methylphenyl)carbamoyl)-1,3,5-trimethyl-1H-pyrrol-2-yl)-2-oxoacetamido)phenyl)boronic acid] | < 0.05 µM | 5 to 30 µM
Cc1cc(NC(=O)c2c(C)c(C(=O)C(=O)NCCN)n(C)c2C)ccc1F [Example 257, 5-(2-((2-aminoethyl)amino)-2-oxoacetyl)-N-(4-fluoro-3-methylphenyl)-1,2,4-trimethyl-1H-pyrrole-3-carboxamide] | 0.05 to 0.499 µM | 5 to 30 µM
Cc1cc(NC(=O)c2c(C)c(C(=O)C(=O)N[C@@H]3c4ccccc4C[C@@H]3O)n(C)c2C)ccc1F [Example 258, N-(4-fluoro-3-methylphenyl)-5-(2-(((1R,2S)-2-hydroxy-2,3-dihydro-1H-inden-1-yl)amino)-2-oxoacetyl)-1,2,4-trimethyl-1H-pyrrole-3-carboxamide] | < 0.05 µM | 5 to 30 µM
Cc1cc(NC(=O)c2c(C)c(C(=O)C(=O)N[C@H]3c4ccccc4C[C@@H]3O)n(C)c2C)ccc1F [Example 259, N-(4-fluoro-3-methylphenyl)-5-(2-(((1S,2S)-2-hydroxy-2,3-dihydro-1H-inden-1-yl)amino)-2-oxoacetyl)-1,2,4-trimethyl-1H-pyrrole-3-carboxamide] | < 0.05 µM | > 30 µM
Cc1cc(NC(=O)c2c(C)c(C(=O)C(=O)N[C@H]3c4ccccc4C[C@H]3O)n(C)c2C)ccc1F [Example 260, N-(4-fluoro-3-methylphenyl)-5-(2-(((1S,2R)-2-hydroxy-2,3-dihydro-1H-inden-1-yl)amino)-2-oxoacetyl)-1,2,4-trimethyl-1H-pyrrole-3-carboxamide] | < 0.05 µM | 5 to 30 µM
Cc1cc(NC(=O)c2c(C)c(C(=O)C(=O)N[C@@H]3c4ccccc4C[C@H]3O)n(C)c2C)ccc1F [Example 261, N-(4-fluoro-3-methylphenyl)-5-(2-(((1R,2R)-2-hydroxy-2,3-dihydro-1H-inden-1-yl)amino)-2-oxoacetyl)-1,2,4-trimethyl-1H-pyrrole-3-carboxamide] | < 0.05 µM | 0.5 to 4.99 µM
Cc1cc(NC(=O)c2c(C)c(C(=O)C(=O)NC3CCCCC3)n(C)c2C)ccc1F [Example 262, 5-(2-(cyclohexylamino)-2-oxoacetyl)-N-(4-fluoro-3-methylphenyl)-1,2,4-trimethyl-1H-pyrrole-3-carboxamide] | < 0.05 µM | 5 to 30 µM
Cc1cc(NC(=O)c2c(C)c(C(=O)C(=O)NC34CCC(O)(CC3)CC4)n(C)c2C)ccc1F [Example 263, N-(4-fluoro-3-methylphenyl)-5-(2-((4-hydroxybicyclo[2.2.2]octan-1-yl)amino)-2-oxoacetyl)-1,2,4-trimethyl-1H-pyrrole-3-carboxamide] | < 0.05 µM | > 30 µM
Cc1cc(NC(=O)c2c(C)c(C(=O)C(=O)Nc3ccc(C(F)(F)F)nc3)n(C)c2C)ccc1F [Example 264, N-(4-fluoro-3-methylphenyl)-1,2,4-trimethyl-5-(2-oxo-2-((6-(trifluoromethyl)pyridin-3-yl)amino)acetyl)-1H-pyrrole-3-carboxamide] | < 0.05 µM | 5 to 30 µM
Cc1cc(NC(=O)c2c(C)c(C(=O)C(=O)Nc3ccc(N4CCOCC4)nc3)n(C)c2C)ccc1F [Example 266, N-(4-fluoro-3-methylphenyl)-1,2,4-trimethyl-5-(2-((6-morpholinopyridin-3-yl)amino)-2-oxoacetyl)-1H-pyrrol-3-carboxamide] | 0.05 to 0.499 µM | > 30 µM
Cc1cc(NC(=O)c2c(C)c(C(=O)C(=O)N[C@]3(C)C[C@H](O)C3)n(C)c2C)ccc1F [Example 267, N-(4-fluoro-3-methylphenyl)-5-(2-(((1s,3s)-3-hydroxy-1-methylcyclobutyl)amino)-2-oxoacetyl)-1,2,4-trimethyl-1H-pyrrole-3-carboxamide] | < 0.05 µM | > 30 µM
CO[C@H]1CC[C@@H](NC(=O)C(=O)c2c(C)c(C(=O)Nc3ccc(F)c(C)c3)c(C)n2C)CC1 [Example 268, N-(4-fluoro-3-methylphenyl)-5-(2-(((1s,4s)-4-methoxycyclohexyl)amino)-2-oxoacetyl)-1,2,4-trimethyl-1H-pyrrole-3-carboxamide] | < 0.05 µM | 5 to 30 µM
